What was measured:
[1] = The drug is tested on Bacteroides sp. WH2 strain: WH2 for biotransformation. The drug concentrations were measured before and after a 12-h incubation by liquid-chromatography-coupled mass spectrometry (LC–MS); conditions: bacteroides sp. wh2, 12 h, 2 µM
[2] = The drug is tested on Bacteroides finegoldii strain: DSM17565 for biotransformation. The drug concentrations were measured before and after a 12-h incubation by liquid-chromatography-coupled mass spectrometry (LC–MS); conditions: 2 µM
[3] = bacteroides thetaiotaomicron, 12 h, 2 µM
Description: The drug is tested on Bacteroides thetaiotaomicron strain: 7330 for biotransformation. The drug concentrations were measured before and after a 12-h incubation by liquid-chromatography-coupled mass spectrometry (LC–MS)

[4] = The drug is tested on Escherichia coli strain: BW25113 for biotransformation. The drug concentrations were measured before and after a 12-h incubation by liquid-chromatography-coupled mass spectrometry (LC–MS); conditions: 2 µM
[5] = The drug is tested on Clostridium symbiosum strain: ATCC14940 for biotransformation. The drug concentrations were measured before and after a 12-h incubation by liquid-chromatography-coupled mass spectrometry (LC–MS); conditions: 2 µM
[6] = The drug is tested on Bacteroides uniformis strain: ATCC8492 for biotransformation. The drug concentrations were measured before and after a 12-h incubation by liquid-chromatography-coupled mass spectrometry (LC–MS); conditions: 2 µM
[7] = The drug is tested on Providencia rettgeri strain: DSM1131 for biotransformation. The drug concentrations were measured before and after a 12-h incubation by liquid-chromatography-coupled mass spectrometry (LC–MS); type: ADME; design: dose 2 uM, timepoint 0 vs 12 hours; conditions: 2 µM
[8] = The drug is tested on Anaerococcus hydrogenalis strain: DSM7454 for biotransformation. The drug concentrations were measured before and after a 12-h incubation by liquid-chromatography-coupled mass spectrometry (LC–MS); conditions: 2 µM
[9] = The drug is tested on Anaerotruncus colihominis strain: DSM17241 for biotransformation. The drug concentrations were measured before and after a 12-h incubation by liquid-chromatography-coupled mass spectrometry (LC–MS); conditions: 2 µM
[10] = The drug is tested on Parabacteroides merdae strain: ATCC43184 for biotransformation. The drug concentrations were measured before and after a 12-h incubation by liquid-chromatography-coupled mass spectrometry (LC–MS); conditions: 2 µM
[11] = limosilactobacillus reuteri cf48-3a, 12 h, 2 µM
Description: The drug is tested on Lactobacillus reuteri CF48-3A strain: BEI HM-102 for biotransformation. The drug concentrations were measured before and after a 12-h incubation by liquid-chromatography-coupled mass spectrometry (LC–MS)

[12] = The drug is tested on Collinsella intestinalis strain: DSM13280 for biotransformation. The drug concentrations were measured before and after a 12-h incubation by liquid-chromatography-coupled mass spectrometry (LC–MS); conditions: 2 µM
[13] = bacteroides eggerthii, 12 h, 2 µM
Description: The drug is tested on Bacteroides eggerthii strain: DSM20697 for biotransformation. The drug concentrations were measured before and after a 12-h incubation by liquid-chromatography-coupled mass spectrometry (LC–MS)

[14] = The drug is tested on Enterococcus faecalis strain: V583 for biotransformation. The drug concentrations were measured before and after a 12-h incubation by liquid-chromatography-coupled mass spectrometry (LC–MS); conditions: 2 µM
[15] = The drug is tested on Bacteroides caccae strain: ATCC43185 for biotransformation. The drug concentrations were measured before and after a 12-h incubation by liquid-chromatography-coupled mass spectrometry (LC–MS); conditions: 2 µM
[16] = bacteroides thetaiotaomicron, 12 h, 2 µM; remark: listed apart in the source
Description: The drug is tested on Bacteroides thetaiotaomicron strain: VPI-5482 for biotransformation. The drug concentrations were measured before and after a 12-h incubation by liquid-chromatography-coupled mass spectrometry (LC–MS)

[17] = segatella copri, 12 h, 2 µM
Description: The drug is tested on Prevotella copri strain: DSM18205 for biotransformation. The drug concentrations were measured before and after a 12-h incubation by liquid-chromatography-coupled mass spectrometry (LC–MS)

[18] = bacteroides fragilis, 12 h, 2 µM
Description: The drug is tested on Bacteroides fragilis strain: DS-208 for biotransformation. The drug concentrations were measured before and after a 12-h incubation by liquid-chromatography-coupled mass spectrometry (LC–MS)

Q: What does the source list for `CCCc1nc2c(C)cc(-c3nc4ccccc4n3C)cc2n1Cc1ccc(-c2ccccc2C(=O)O)cc1`?
A: Bacterial Biotransformation [1]: Compound metabolized; Bacterial Biotransformation [2]: Compound NOT metabolized; Bacterial Biotransformation [3]: Compound metabolized; Bacterial Biotransformation [4]: Compound NOT metabolized; Bacterial Biotransformation [5]: Compound NOT metabolized; Bacterial Biotransformation [6]: Compound metabolized; Bacterial Biotransformation [7]: Compound NOT metabolized; Bacterial Biotransformation [8]: Compound NOT metabolized

Q: With `CN1CC(=O)N2[C@H](c3ccc4c(c3)OCO4)c3[nH]c4ccccc4c3C[C@@H]2C1=O` as the compound, how does the “Bacterial Biotransformation” value [9] read?
A: Its value is “Compound NOT metabolized”.

Q: And the “Bacterial Biotransformation” value [1]?
A: The value was “Compound NOT metabolized”.

Q: What about the “Bacterial Biotransformation” value [2] of the same compound?
A: Its value is “Compound NOT metabolized”.

Q: What about the “Bacterial Biotransformation” value [3] of the same compound?
A: The value was “Compound metabolized”.

Q: And the “Bacterial Biotransformation” value [10]?
A: The value was “Compound NOT metabolized”.

Q: What about the “Bacterial Biotransformation” value [5] of the same compound?
A: The value was “Compound NOT metabolized”.

Q: What about the “Bacterial Biotransformation” value [11] of the same compound?
A: The value was “Compound NOT metabolized”.

Q: And the “Bacterial Biotransformation” value [12]?
A: Its value is “Compound NOT metabolized”.

Q: And the “Bacterial Biotransformation” value [13]?
A: Its value is “Compound NOT metabolized”.

Q: What about the “Bacterial Biotransformation” value [6] of the same compound?
A: Its value is “Compound NOT metabolized”.

Q: What about the “Bacterial Biotransformation” value [14] of the same compound?
A: Its value is “Compound NOT metabolized”.

Q: And the “Bacterial Biotransformation” value [15]?
A: Its value is “Compound NOT metabolized”.

Q: And the “Bacterial Biotransformation” value [7]?
A: The value was “Compound NOT metabolized”.

Q: And the “Bacterial Biotransformation” value [8]?
A: The value was “Compound NOT metabolized”.

Q: For `CC(O)(CS(=O)(=O)c1ccc(F)cc1)C(=O)Nc1ccc(C#N)c(C(F)(F)F)c1` (stereo not drawn) [BICALUTAMIDE], which “Bacterial Biotransformation” value [9] is on record?
A: The value was “Compound NOT metabolized”.

Q: And the “Bacterial Biotransformation” value [1]?
A: Its value is “Compound NOT metabolized”.

Q: What about the “Bacterial Biotransformation” value [2] of the same compound?
A: The value was “Compound NOT metabolized”.

Q: What about the “Bacterial Biotransformation” value [3] of the same compound?
A: Its value is “Compound NOT metabolized”.

Q: What about the “Bacterial Biotransformation” value [10] of the same compound?
A: Its value is “Compound NOT metabolized”.

Q: And the “Bacterial Biotransformation” value [16]?
A: Its value is “Compound NOT metabolized”.

Q: And the “Bacterial Biotransformation” value [4]?
A: Its value is “Compound metabolized”.

Q: And the “Bacterial Biotransformation” value [5]?
A: The value was “Compound NOT metabolized”.

Q: And the “Bacterial Biotransformation” value [11]?
A: Its value is “Compound NOT metabolized”.

Q: And the “Bacterial Biotransformation” value [17]?
A: Its value is “Compound NOT metabolized”.

Q: And the “Bacterial Biotransformation” value [12]?
A: Its value is “Compound NOT metabolized”.

Q: What about the “Bacterial Biotransformation” value [13] of the same compound?
A: Its value is “Compound NOT metabolized”.

Q: And the “Bacterial Biotransformation” value [6]?
A: The value was “Compound NOT metabolized”.

Q: And the “Bacterial Biotransformation” value [14]?
A: Its value is “Compound NOT metabolized”.

Q: And the “Bacterial Biotransformation” value [15]?
A: Its value is “Compound NOT metabolized”.

Q: What about the “Bacterial Biotransformation” value [18] of the same compound?
A: The value was “Compound NOT metabolized”.

Q: And the “Bacterial Biotransformation” value [8]?
A: Its value is “Compound NOT metabolized”.

Q: Which results are given for `CN(CCOc1ccc(CC2SC(=O)NC2=O)cc1)c1ccccn1.O=C(O)/C=C\C(=O)O` (stereo not drawn) [ROSIGLITAZONE MALEATE]?
A: Bacterial Biotransformation [9]: Compound NOT metabolized; Bacterial Biotransformation [1]: Compound NOT metabolized; Bacterial Biotransformation [2]: Compound NOT metabolized; Bacterial Biotransformation [3]: Compound NOT metabolized; Bacterial Biotransformation [10]: Compound NOT metabolized; Bacterial Biotransformation [16]: Compound NOT metabolized; Bacterial Biotransformation [5]: Compound NOT metabolized; Bacterial Biotransformation [11]: Compound NOT metabolized; Bacterial Biotransformation [17]: Compound NOT metabolized; Bacterial Biotransformation [12]: Compound NOT metabolized; Bacterial Biotransformation [13]: Compound NOT metabolized; Bacterial Biotransformation [6]: Compound NOT metabolized; Bacterial Biotransformation [14]: Compound NOT metabolized; Bacterial Biotransformation [15]: Compound NOT metabolized; Bacterial Biotransformation [18]: Compound NOT metabolized; Bacterial Biotransformation [7]: Compound NOT metabolized; Bacterial Biotransformation [8]: Compound NOT metabolized

Q: For `CCN1CCCC1CNC(=O)c1cc(S(N)(=O)=O)ccc1OC` (stereo not drawn) [SULPIRIDE], which “Bacterial Biotransformation” value [9] is on record?
A: Its value is “Compound NOT metabolized”.

Q: And the “Bacterial Biotransformation” value [1]?
A: The value was “Compound NOT metabolized”.

Q: And the “Bacterial Biotransformation” value [2]?
A: Its value is “Compound NOT metabolized”.

Q: And the “Bacterial Biotransformation” value [10]?
A: The value was “Compound NOT metabolized”.

Q: And the “Bacterial Biotransformation” value [4]?
A: The value was “Compound NOT metabolized”.

Q: And the “Bacterial Biotransformation” value [5]?
A: Its value is “Compound NOT metabolized”.

Q: And the “Bacterial Biotransformation” value [11]?
A: Its value is “Compound NOT metabolized”.

Q: What about the “Bacterial Biotransformation” value [12] of the same compound?
A: The value was “Compound NOT metabolized”.

Q: And the “Bacterial Biotransformation” value [13]?
A: The value was “Compound NOT metabolized”.

Q: And the “Bacterial Biotransformation” value [6]?
A: The value was “Compound NOT metabolized”.

Q: What about the “Bacterial Biotransformation” value [14] of the same compound?
A: The value was “Compound NOT metabolized”.

Q: And the “Bacterial Biotransformation” value [15]?
A: The value was “Compound NOT metabolized”.

Q: What about the “Bacterial Biotransformation” value [7] of the same compound?
A: The value was “Compound NOT metabolized”.

Q: And the “Bacterial Biotransformation” value [8]?
A: Its value is “Compound NOT metabolized”.

Q: Which “Bacterial Biotransformation” value [9] does the source give for `CNS(=O)(=O)Cc1ccc2[nH]cc(CCN(C)C)c2c1.O=C(O)CCC(=O)O` [SUMATRIPTAN SUCCINATE] here?
A: The value was “Compound NOT metabolized”.

Q: What about the “Bacterial Biotransformation” value [1] of the same compound?
A: Its value is “Compound NOT metabolized”.

Q: And the “Bacterial Biotransformation” value [2]?
A: Its value is “Compound NOT metabolized”.

Q: What about the “Bacterial Biotransformation” value [10] of the same compound?
A: Its value is “Compound NOT metabolized”.

Q: What about the “Bacterial Biotransformation” value [16] of the same compound?
A: Its value is “Compound metabolized”.

Q: And the “Bacterial Biotransformation” value [4]?
A: Its value is “Compound NOT metabolized”.

Q: And the “Bacterial Biotransformation” value [5]?
A: The value was “Compound NOT metabolized”.

Q: What about the “Bacterial Biotransformation” value [11] of the same compound?
A: The value was “Compound NOT metabolized”.

Q: What about the “Bacterial Biotransformation” value [17] of the same compound?
A: The value was “Compound NOT metabolized”.

Q: What about the “Bacterial Biotransformation” value [12] of the same compound?
A: The value was “Compound NOT metabolized”.

Q: And the “Bacterial Biotransformation” value [13]?
A: The value was “Compound NOT metabolized”.

Q: And the “Bacterial Biotransformation” value [14]?
A: Its value is “Compound NOT metabolized”.

Q: And the “Bacterial Biotransformation” value [15]?
A: The value was “Compound NOT metabolized”.

Q: What about the “Bacterial Biotransformation” value [18] of the same compound?
A: The value was “Compound metabolized”.

Q: And the “Bacterial Biotransformation” value [7]?
A: The value was “Compound NOT metabolized”.

Q: What about the “Bacterial Biotransformation” value [8] of the same compound?
A: Its value is “Compound NOT metabolized”.

Q: Which “Bacterial Biotransformation” value [9] does the source give for `COc1ccc(CN2CCNCC2)c(OC)c1OC.Cl.Cl` [TRIMETAZIDINE DIHYDROCHLORIDE] here?
A: Its value is “Compound NOT metabolized”.

Q: And the “Bacterial Biotransformation” value [1]?
A: The value was “Compound metabolized”.

Q: And the “Bacterial Biotransformation” value [2]?
A: The value was “Compound NOT metabolized”.

Q: And the “Bacterial Biotransformation” value [3]?
A: Its value is “Compound metabolized”.

Q: And the “Bacterial Biotransformation” value [10]?
A: The value was “Compound metabolized”.

Q: And the “Bacterial Biotransformation” value [16]?
A: Its value is “Compound metabolized”.

Q: And the “Bacterial Biotransformation” value [4]?
A: The value was “Compound NOT metabolized”.

Q: And the “Bacterial Biotransformation” value [5]?
A: The value was “Compound NOT metabolized”.

Q: What about the “Bacterial Biotransformation” value [11] of the same compound?
A: Its value is “Compound NOT metabolized”.

Q: What about the “Bacterial Biotransformation” value [17] of the same compound?
A: The value was “Compound NOT metabolized”.

Q: And the “Bacterial Biotransformation” value [12]?
A: The value was “Compound NOT metabolized”.

Q: And the “Bacterial Biotransformation” value [13]?
A: The value was “Compound NOT metabolized”.

Q: What about the “Bacterial Biotransformation” value [6] of the same compound?
A: Its value is “Compound metabolized”.

Q: What about the “Bacterial Biotransformation” value [14] of the same compound?
A: Its value is “Compound NOT metabolized”.

Q: What about the “Bacterial Biotransformation” value [15] of the same compound?
A: The value was “Compound NOT metabolized”.

Q: And the “Bacterial Biotransformation” value [7]?
A: The value was “Compound metabolized”.

Q: What about the “Bacterial Biotransformation” value [8] of the same compound?
A: Its value is “Compound NOT metabolized”.
